This note sets out measurements from article PMC12692955, “Acetylbinankadsurin A Decreases Macrophage Glycolysis and Pro-Inflammatory Phenotype Polarization via Inhibiting HIF-1α to Alleviate Hepatic Fibrosis in Mice” (Molecules, 2025).

For this test, the target named is T1, HIF-1α (Homo sapiens, UniProt Q16665).
T1 construct: gene HIF1A; recombinant protein HIF-1α (MCE #HY-P74888)
In words: SPR (Biacore T200, HIF-1α amine-coupled to CM5 chip). The test is classed as binding.

T1 sequence (Q16665 whole entry): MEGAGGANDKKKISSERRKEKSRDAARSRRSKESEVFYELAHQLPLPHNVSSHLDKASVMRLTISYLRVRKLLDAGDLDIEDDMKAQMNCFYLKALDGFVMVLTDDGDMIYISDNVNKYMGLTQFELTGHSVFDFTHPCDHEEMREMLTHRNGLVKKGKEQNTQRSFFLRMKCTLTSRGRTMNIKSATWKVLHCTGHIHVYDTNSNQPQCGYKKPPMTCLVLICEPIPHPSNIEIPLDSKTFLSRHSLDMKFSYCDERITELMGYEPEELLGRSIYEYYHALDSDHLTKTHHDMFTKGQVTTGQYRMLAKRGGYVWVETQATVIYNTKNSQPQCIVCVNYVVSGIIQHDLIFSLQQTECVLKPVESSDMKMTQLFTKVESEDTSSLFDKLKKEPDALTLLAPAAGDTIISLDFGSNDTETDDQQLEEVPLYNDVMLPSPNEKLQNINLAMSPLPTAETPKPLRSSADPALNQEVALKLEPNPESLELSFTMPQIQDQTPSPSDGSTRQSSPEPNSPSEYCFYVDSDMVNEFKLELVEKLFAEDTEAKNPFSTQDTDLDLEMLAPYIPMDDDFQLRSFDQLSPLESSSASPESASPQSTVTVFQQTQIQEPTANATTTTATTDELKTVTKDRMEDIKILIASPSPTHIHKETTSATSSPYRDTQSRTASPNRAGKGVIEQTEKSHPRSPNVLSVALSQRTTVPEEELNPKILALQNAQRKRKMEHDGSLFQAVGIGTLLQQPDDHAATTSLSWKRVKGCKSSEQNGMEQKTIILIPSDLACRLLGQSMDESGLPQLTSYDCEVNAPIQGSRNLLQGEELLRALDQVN

For the compound `COc1cc2c(c(O)c1OC)-c1c(cc3c(c1OC)OCO3)[C@H](OC(C)=O)[C@H](C)[C@H](C)C2` [ACBA, Acetylbinankadsurin A], the affinity, expressed as Kd, was 13 µM.

Usually Kd stands for the free concentration of one partner at which half of the binding sites on the other are occupied at equilibrium, for simple one-to-one binding. High values mean a looser complex, low ones a tighter complex.
